This is an account of results in patent publication US6413952B1, “Agonizing dimeric cell-surface receptors with a receptor binding moiety and chelating metal” (SmithKline Beecham Corporation, priority 1997, dated 2002).

Assay [1] addresses T1, G-CSF receptor (Mus musculus, UniProt P40223).
T1 construct: they express endogenous G-CSF receptors; endogenous in cells; host or cells: NFS60 murine myeloid cell line with a G-CSF-responsive luciferase reporter
T1 sequence (P40223 26-837): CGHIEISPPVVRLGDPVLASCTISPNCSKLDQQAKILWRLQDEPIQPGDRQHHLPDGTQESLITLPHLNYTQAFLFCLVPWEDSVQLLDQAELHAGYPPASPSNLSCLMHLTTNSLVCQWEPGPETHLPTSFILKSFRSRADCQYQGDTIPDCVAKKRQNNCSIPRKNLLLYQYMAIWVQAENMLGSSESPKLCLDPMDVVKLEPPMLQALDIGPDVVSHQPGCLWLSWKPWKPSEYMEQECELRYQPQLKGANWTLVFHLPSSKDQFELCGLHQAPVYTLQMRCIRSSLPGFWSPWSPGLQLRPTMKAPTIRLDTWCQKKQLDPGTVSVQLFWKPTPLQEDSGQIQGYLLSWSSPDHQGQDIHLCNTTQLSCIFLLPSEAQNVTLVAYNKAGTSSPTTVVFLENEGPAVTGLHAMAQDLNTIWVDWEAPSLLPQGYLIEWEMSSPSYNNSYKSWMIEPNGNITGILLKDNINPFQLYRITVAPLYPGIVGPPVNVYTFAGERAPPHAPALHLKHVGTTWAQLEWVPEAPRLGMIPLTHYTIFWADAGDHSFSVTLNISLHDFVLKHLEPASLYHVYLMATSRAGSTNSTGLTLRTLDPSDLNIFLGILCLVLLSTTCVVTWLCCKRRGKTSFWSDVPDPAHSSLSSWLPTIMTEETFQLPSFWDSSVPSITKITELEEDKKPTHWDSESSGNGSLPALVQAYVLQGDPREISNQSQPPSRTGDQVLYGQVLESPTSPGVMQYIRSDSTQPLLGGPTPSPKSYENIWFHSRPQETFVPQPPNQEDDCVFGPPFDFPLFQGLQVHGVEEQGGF
The assay is described as follows: Luciferase assay on NFS60 cells in the presence of EDTA / metal chlorides. In kind it is cell-based, murine. As to conditions: for effect of EDTA on agonist (luciferase) activity: EDTA 1.2 and 5 millimolar, media contained 1-5 uM zinc(II) (FIGS. 3, 4). On the procedure:
FIG. 3 is an analysis of the effect of ethylenediaminetetraacetic acid (as used herein—EDTA) on the activity of Compound 1a (from Example 1) in NFS60 cells. Shown are luciferase response curves of Compound 1a at the indicated concentrations and in the presence of various concentrations of EDTA. […] The media in this assay contained a small amount (1-5 uM) of zinc(II).
FIG. 4 is an analysis of the effect of EDTA on the activity of recombinant G-CSF on NFS60 cells. Shown are luciferase response curves of recombinant G-CSF at the indicated concentrations and in the presents of various concentrations of EDTA. EDTA at both 1.2 and 5 millimolar has little effect on the activity of recombinant G-CSF in the assay.
FIGS. 5 and 6 depict an analysis of the activity of metal chlorides alone on the basal luciferase level of NFS60 cells. Shown are luciferase response curves of the indicated metal chlorides at various concentrations. None of the metals have a meaningful effect on the basal luciferase levels at concentrations equal or less than 10 micromolar.
FIGS. 7 and 8 show an analysis of the effect of metal chlorides on the EDTA depleted activity of Compound 1a on NFS60 cells. Shown are luciferase response curves as effected by the indicated metal chlorides. […] None of the other metals tested could overcome the inhibitory effect of EDTA.
In order to determine the requisiteness of metal chelation of small organic molecules to agonist activity at dimeric cell-surface receptors, the above luciferase assay was performed on the G-CSF receptor in the presence of EDTA. EDTA is a strong metal chelator and had as its only effect, the removal of zinc and other metals from the ligand-receptor interaction.

Assay [2] concerns the target T1, G-CSF receptor. The assay is described as follows: Luciferase reporter gene assay on G-CSF-responsive NFS60 cell line. As to conditions: NFS60 cells, absence of zinc (FIG. 1). In kind it is cell-based, murine. On the procedure:
Activity of compound 1a is below the threshold of 150% over background. The study was performed as a Luciferase assay configured on the G-CSF-responsive NFS60 cell line as described in Tian et al., Science 281, 257-259 (1998). The experiments shown in FIGS. 2-8 used the same NFS60 cell line.
Compounds of the present invention are tested for potency as agonist of a dimeric cell-surface receptor in a Luciferase reporter gene assay such as described in Tian et al., Science 281, 257-259 (1998). For example, for G-CSF NFS60 cells (Holmes, et al., Proc. Natl. Acad. Sci. USA 82: 6687-6691 (1985)) are selected because they express endogenous G-CSF receptors closely matching the pattern of STAT (signal transducers and activators of transcription) activation observed in primary murine and human bone marrow cells.
In general terms: A reporter such as luciferase makes a cellular process visible.

“Also recorded” adds a separate entry of the source.

For the molecule zinc (II) [reference compound], in assay [1] (50 micromolar EDTA, metal 0.5-10 micromolar (FIGS. 7, 8)), the “effect of metal chlorides on the EDTA depleted luciferase activity of Compound 1a” value is given as “can overcome the inhibition in luciferase activity”. For the molecule `c1ccc(C23NC(=Nc4nc5ccccc5[nH]4)NC2(c2ccccn2)NC(=Nc2nc4ccccc4[nH]2)N3)nc1` (stereo not shown) [Compound 1a, 2,5-Bis[2-benzimidazolylimino]-3a,6a-bis(2-pyridyl)-1,2,3,3a,4,5,6,6a-octahydroimidazo[4,5-d]imidazole], the “luciferase activity over background” value in assay [2] is under 150%. The “effect of EDTA on agonist (luciferase) activity” value in assay [1] is “antagonized the activity; also recorded: abrogated”.

B1: recombinant G-CSF: the natural ligand (i.e. G-CSF or recombinant G-CSF) of the G-CSF receptor (protein, UniProt P09919 31-207, looked up)
Granulocyte …: TPLGPASSLPQSFLLKCLEQVRKIQGDGAALQEKLVSECATYKLCHPEELVLLGHSLGIPWAPLSSCPSQALQLAGCLSQLHSGLFLYQGLLQALEGISPELGPTLDTLQLDVADFATTIWQQMEELGMAPALQPTQGAMPAFASAFQRRAGGVLVASHLQSFLEVSYRVLRHLAQP
As for B1, in assay [1], the “effect of EDTA on agonist (luciferase) activity” value is listed as “little effect; also recorded: not mediated by metal ions”.
